Experimental data taken from US20250186397A1, “COMPOUNDS FOR THE USE IN THE TREATMENT OF MOOD DISORDERS” (Kanna Health Ltd, priority 2022, published 2025).
Read-outs that look alike come from different tables or passages of the source.

Columns and labels:
[1] = target: human recombinant PDE-4D2 (Homo sapiens, UniProt Q08499); experiment: PDE4-D2 assay (SPA); type: biochemical
Protocol: (§1) Test compounds (conc range), reference compound or vehicle control were added to assay buffer containing (in mM); Tris/HCl, pH 7.4 (40), MgCl2 (8) and EGTA/NaOH (1.7), containing 450 nM cAMP (450 nM) and 0.25 μCi (PDE-4B1) or 0.0125 μCi (PDE-4D2) [^3H] CAMP. 20 mins after addition of human recombinant PDE-4B1 (1.2 IEU) or PDE-4D2 (1.5 IEU), SPA beads were added and incubated at 22° C. for a further 30 mins. [^3H]5′AMP was quantified by a standard scintillation counting method.
(§2) Data were expressed as the mean of two technical replicates for each data point, and percent inhibition calculated relative to maximum inhibition observed in the presence of the reference comparator rolipram for PDE-4 assays, and imipramine for serotonin assays.

[2] = target: human recombinant PDE-4B1 (Homo sapiens, UniProt Q07343); experiment: PDE4-B1 assay (SPA); type: biochemical; details: human recombinant enzyme, 450 nM cAMP
Chain of human recombinant PDE-4B1 (Q07343 whole entry): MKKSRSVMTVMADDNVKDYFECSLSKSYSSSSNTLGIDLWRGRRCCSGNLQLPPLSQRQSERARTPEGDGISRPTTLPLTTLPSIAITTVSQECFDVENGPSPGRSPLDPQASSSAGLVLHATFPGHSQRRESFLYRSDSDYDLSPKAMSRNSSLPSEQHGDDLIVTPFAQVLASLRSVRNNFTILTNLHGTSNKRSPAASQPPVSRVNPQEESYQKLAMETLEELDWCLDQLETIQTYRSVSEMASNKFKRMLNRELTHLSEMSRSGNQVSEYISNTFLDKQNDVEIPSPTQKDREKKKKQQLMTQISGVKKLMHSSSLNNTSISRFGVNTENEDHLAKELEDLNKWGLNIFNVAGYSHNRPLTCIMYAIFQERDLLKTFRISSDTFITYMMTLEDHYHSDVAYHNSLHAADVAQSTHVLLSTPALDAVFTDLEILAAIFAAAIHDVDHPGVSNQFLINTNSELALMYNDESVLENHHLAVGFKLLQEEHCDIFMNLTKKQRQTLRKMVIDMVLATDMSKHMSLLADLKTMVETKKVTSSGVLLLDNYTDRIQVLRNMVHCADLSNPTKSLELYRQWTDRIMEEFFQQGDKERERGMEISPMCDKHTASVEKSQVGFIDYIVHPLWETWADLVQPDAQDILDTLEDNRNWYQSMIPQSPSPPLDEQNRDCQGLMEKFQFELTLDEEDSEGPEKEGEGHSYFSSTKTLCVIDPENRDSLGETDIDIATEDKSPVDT
Protocol: as §1, §2

C57B6J mice [3] = experiment: Elevated plus maze after chronic mild unpredictable stress; type: in vivo
Protocol: (§3) FIG. 8. Effect of mesembrenol (0.3, 1 and 3 mg/kg, i.p.) administered 30 minutes pre-test on chronic mild unpredictable stress induced anxiety phenotype in the elevated plus maze. Data represents (A) latency to open arm entry (sec), (B) number of open arm entries (a.u.) and (C) total time in open arms of the apparatus during the ten minute procedure. Analysis by one-way ANOVA followed by multiple comparisons with Dunn's and Sidak's correction; *-**** P<0.05-0.0001 vs stress vehicle (n=8).
as §3, with “9.” for “8.”, “mesembranol” for “mesembrenol”
(§4) C57BI6J mice, will be housed in groups of 4, will be exposed to a variety of mild stressors for a period of four weeks.
(§5) The stressors will include wet bedding, 40° cage tilt, introduction of intruder mouse from different experimental cohort, food deprivation, water deprivation, overnight illumination, and presence of soiled rat bedding as an aversive odour. These stressors are randomly scheduled over each weekly period and repeated for the duration of the experiment. Each stressor is applied for a period of 8-16 hours.
(§6) A cohort of depression-like phenotype in adult male C57B6J mice is produced by employing a four-week mild unpredictable stress protocol.
Finally, the effect of the test compounds on chronic unpredictable mild stress anxiogenic phenotype in the elevated plus-maze to determine anxiolytic-like activity.
The apparatus consists of 4 raised flat runways extending from a central platform raised 1 m above the floor of a 2 m wide water maze (prevents escape in the rare event of an animal falling from the apparatus). Two arms have enclosed sides while the others are open.
The mouse version of the apparatus employs maze arms of 30 cm length and 6 cm width, where the enclosed arms have walls 30 cm high. The room is lit with low level indirect lighting.
Animals are allowed to freely explore the apparatus over a 10 minute trial with remote video analysis capturing the pattern of animal movement. The time animals spend exploring the open arms of the maze during the trial is inversely related to the level of stress/anxiety felt by the animal.
Endpoints recorded are the latency (sec) to enter open arms of the maze, total number of open arm entries (a.u.) and total time (sec) spent in the open arms of the plus-maze.

C57B6J mice [4] = experiment: Forced swim test after chronic mild unpredictable stress; type: in vivo; details: 3 mg/kg i.p., 30 minutes pre-test, relative to vehicle
Protocol: (§7) FIG. 6. Effect of mesembrenol (0.3, 1 and 3 mg/kg, i.p.) administered 30 minutes pre-test on chronic mild unpredictable stress induced depression phenotype in the forced swim test. Data represents (A) latency to immobility (sec) and (B) total time immobile in the four minute evaluation phase of the procedure. Analysis by one-way ANOVA followed by multiple comparisons with Sidak's and Dunn's correction; **-****P<0.01-0.0001 vs stress vehicle (n=8).
as §7, with “7.” for “6.”, “mesembranol” for “mesembrenol”, “Sidak's” for “Sidak's and Dunn's”, “***-****P<0.001-0.0001” for “**-****P<0.01-0.0001”
as §4, §5, §6
The effect of treatment with the test compounds on chronic mild stress induced immobility in the forced swim test was tested to establish antidepressant-like activity.
Following the 24 hour sucrose preference test, animals are treated again with the test compound, imipramine or vehicle. Animals are individually placed in clear Plexiglas cylinders (25 cm high; 10 cm in diameter) which are filled to a depth of 15 cm with water at 22-25° C.
Testing is conducted under low level red light and behaviour recorded over a 6 minute period using a video camera placed above the cylinder. During the test the animals are placed in the cylinder and allowed to habituate for two minutes before the cumulative duration of time spent immobile is determined over the following 4 minutes. Latency to immobility is recorded.
Movements necessary for the animal to maintain its head above water will not be scored as activity.

C57B6J mice [5] = experiment: Sucrose preference test after chronic mild unpredictable stress; type: in vivo; details: relative to stress vehicle; for sucrose preference: all time points tested
Protocol: (§8) FIG. 4. Effect of mesembrenol (0.3, 1 and 3 mg/kg, i.p.) administered 30 minutes pre-test on sucrose preference following chronic mild unpredictable stress. Data represents cumulative % preference for sucrose solution over water at the 4, 8, 12 and 24 hour timepoints of the test period. Analysis by repeat measures two-way ANOVA followed by multiple comparisons with Dunnet's correction; *-****P<0.05-0.0001 vs stress vehicle (n=8).
as §8, with “5.” for “4.”, “mesembranol” for “mesembrenol”, “by” for “by repeat measures”, “Sidak's” for “Dunnet's”, “*-*P<0.001-0.0001” for “*-****P<0.05-0.0001”
as §4, §5, §6
An additional readout was used to assess antidepressant-like activity of the test compounds using a further measure of anhedonia, the sucrose preference test.
During this test, mice are housed individually and provided, for 24 hours, a free choice between two bottles, one with 1% sucrose solution and another with filtered tap water.
To prevent possible effects of side preference in drinking behaviour, the position of the bottles is swapped after 12 hours. The consumption of water and sucrose solution is estimated simultaneously in control and experimental groups by weighing the bottles. The sucrose intake is calculated as an amount of consumed sucrose in mg per gram body weight. The preference for sucrose is calculated as a percentage of consumed sucrose solution of the total amount of liquid drunk.
A decrease of sucrose preference below 65%, is taken as the criterion for anhedonia. […] In addition, mice with a lower than 65% sucrose preference in other models display features of anhedonia and depression, such as an increased threshold of intracranial self-stimulation and sleep disturbances.
The effect of 2 weeks treatment with imipramine or the acute effect of the test compound or vehicle is determined over this 24 hour period.

[6] = target: T1, human serotonin transporter (Homo sapiens, UniProt P31645); experiment: SERT assay, [3H] serotonin uptake in transfected CHO cells; type: cell-based; details: CHO cells with human serotonin transporter, 180 min
T1 construct: expressed in transfected cells; host or cells: CHO cells
T1 sequence (P31645 whole entry): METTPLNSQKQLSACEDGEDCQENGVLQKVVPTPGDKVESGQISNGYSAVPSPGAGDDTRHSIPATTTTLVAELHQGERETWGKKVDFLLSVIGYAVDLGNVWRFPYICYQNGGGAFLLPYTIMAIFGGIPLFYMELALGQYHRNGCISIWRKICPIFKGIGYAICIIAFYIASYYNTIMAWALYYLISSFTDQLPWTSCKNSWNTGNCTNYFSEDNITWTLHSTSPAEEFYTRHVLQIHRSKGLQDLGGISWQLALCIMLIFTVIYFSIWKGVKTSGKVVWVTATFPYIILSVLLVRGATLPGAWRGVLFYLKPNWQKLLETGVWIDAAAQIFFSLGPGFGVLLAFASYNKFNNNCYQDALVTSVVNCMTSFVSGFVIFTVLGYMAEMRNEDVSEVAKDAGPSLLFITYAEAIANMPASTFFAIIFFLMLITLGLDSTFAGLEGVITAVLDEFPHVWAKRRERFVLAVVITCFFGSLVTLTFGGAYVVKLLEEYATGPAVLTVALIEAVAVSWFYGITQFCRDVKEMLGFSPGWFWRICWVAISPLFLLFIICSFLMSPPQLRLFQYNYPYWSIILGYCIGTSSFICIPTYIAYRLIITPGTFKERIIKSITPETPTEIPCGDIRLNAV
Protocol: Test compounds (conc range), reference compound or vehicle control were incubated for 180 min at room temperature with CHO cells stably transfected with the human serotonin transporter (5×10^3 cells/well) with 0.15 μM [3H] serotonin in the presence or absence of the test or reference compound in buffer containing (in mM); Tris/HCl (pH 7.4) (5), HEPES/Tris (7.5), NaCl (120), KCl (5.4), CaCl2) (1.2), MgSO4 (1.2), Glucose (5) and ascorbic acid (1). Following incubation, [3H] serotonin uptake was quantified by a standard scintillation counting method.
as §2

C57B6J mice [7] = experiment: Female urine sniffing test after chronic mild unpredictable stress; type: in vivo; details: 60 minutes pre-test; for time sniffing female estrous urine: relative to vehicle
Protocol: (§9) FIG. 2. Effect of mesembrenol (0.3, 1 and 3 mg/kg, i.p.) administered 60 minutes pre-test on preference to examine the female estrous urine treat following chronic mild unpredictable stress. Data represents total time (sec) engaged in sniffing and investigating the urine soaked cotton tip during a 3 minute trial period. Analysis by one-way ANOVA followed by multiple comparisons with Sidak's correction; **-****P<0.01-0.0001 vs stress vehicle (n=8).
as §9, with “3.” for “2.”, “mesembranol” for “mesembrenol”
as §4, §5, §6
Following two weeks treatment with imipramine, or acute treatment with vehicle or the test compounds (mesembrenol and mesembranol), the reversal of stress induced depression-like behaviour was determined using a measure of anhedonia, female urine sniffing preference.
The test compounds were evaluated at three doses with comparison made to vehicle control, no stress control and the reference control imipramine (n=8). […]
Animals are subsequently transferred to individual cages and exposed for a 3 minute period to a cotton tipped applicator which is dipped in water and attached to the side of the cage. The time each animal spends sniffing the water-impregnated cotton tipped applicator is scored manually by the observer who is blinded to group treatments.
Following a 45 minute interval in the absence of a cotton tipped applicator, an applicator dipped in the urine of a female mice in oestrus is presented and the time spent sniffing the urine-impregnated cotton bud is recorded over a 3 minute period. […]
Testing is conducted under low level red light and behaviour is scored remotely via a video camera placed above the cage.

zebrafish = details: isolated alkaloids, Maphanga et al., 2022; cited from earlier work
in vivo = details: male, C57BI/6J, mouse, ip, 10 mg/kg
Protocol: Groups of male C57BI/6J mice received a single administration of test compound (10 mg/kg; i.p.) in methylcellulose (0.5% w/v).
Three mice from each dose group were subject to cardiac puncture under general anaesthesia at 0.25, 0.50, 1.00, 2.00, 4.00, 7.00 and 24.0 hours post-dose and plasma samples generated for application of standard LC-MS/MS bioanalytical methods.
Quantitation of compound concentration was derived from reference calibration data. Pharmacokinetic data were derived from serial plasma concentrations.

[8] = 3 mg/kg i.p., 30 minutes pre-test, relative to vehicle
[9] = 3 mg/kg i.p., mesembrenol p<0.001, mesembranol p<0.01

Chain of human recombinant PDE-4D2 (Q08499 303-809 limits assumed): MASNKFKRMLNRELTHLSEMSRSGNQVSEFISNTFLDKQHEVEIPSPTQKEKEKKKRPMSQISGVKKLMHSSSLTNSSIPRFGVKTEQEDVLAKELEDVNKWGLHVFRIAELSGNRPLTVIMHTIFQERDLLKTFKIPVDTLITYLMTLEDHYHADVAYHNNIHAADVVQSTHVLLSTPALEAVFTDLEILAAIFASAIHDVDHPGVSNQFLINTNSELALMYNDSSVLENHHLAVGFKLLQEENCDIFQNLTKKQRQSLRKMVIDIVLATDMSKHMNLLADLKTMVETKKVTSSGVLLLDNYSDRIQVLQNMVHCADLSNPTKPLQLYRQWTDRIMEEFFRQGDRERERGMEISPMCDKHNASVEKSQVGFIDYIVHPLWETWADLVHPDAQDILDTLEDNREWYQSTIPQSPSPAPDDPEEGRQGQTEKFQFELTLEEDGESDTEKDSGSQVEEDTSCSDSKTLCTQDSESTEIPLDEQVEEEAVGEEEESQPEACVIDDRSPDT

CN(C)CCCN1c2ccccc2CCc2ccccc21 [Imipramine, reference compound]
IC50 ([1]; human recombinant enzyme, 450 nM cAMP, read-out: IC50 PDE-4D2): 0.144 to 0.3 µM | IC50 [2]: 1.6 µM

COc1ccc(C23CCC(O)CC2N(C)CC3)cc1OC (centres unmarked) [Mesembranol, 3a-(3,4-dimethoxyphenyl)-1-methyl-3,4,5,6,7,7a-hexahydro-2H-indol-6-ol]
number of open arm entries (C57B6J mice [3]; [8]): significant increase | time spent in the open arms (C57B6J mice [3]; [8]): significant increase | IC50 [1]: 9.84 µM | immobility time (C57B6J mice [4]): significant reduction | latency to immobility (C57B6J mice [4]): no changes | sucrose preference (C57B6J mice [5]; 3 mg/kg i.p.): statistically significant increase | IC50 [6]: 0.143 µM | IC50 [2]: 8.41 µM | time sniffing female estrous urine (C57B6J mice [7]; [9]): significant increase | effect in zebrafish model of anxiety (zebrafish): anxiolytic-like effect | AUC(0-inf) (in vivo): 649 ng·h/mL | Cmax (in vivo): 834 ng/mL | Tmax (in vivo): 18 min | half-life (in vivo): 21.8 min

COc1ccc(C23C=CC(O)CC2N(C)CC3)cc1OC (centres unmarked) [Mesembrenol]
time spent in the open arms (C57B6J mice [3]; 1 mg/kg i.p., 30 minutes pre-test, relative to vehicle): significant increase | time spent in the open arms (C57B6J mice [3]; [8]): significant increase | number of open arm entries (C57B6J mice [3]; 0.3, 1 and 3 mg/kg i.p., versus the vehicle group): no change | IC50 [1]: 3.91 µM | immobility time (C57B6J mice [4]): significant reduction | latency to immobility (C57B6J mice [4]): significant increase | sucrose preference (C57B6J mice [5]; 1 mg/kg i.p.): significant increase | sucrose preference (C57B6J mice [5]; 3 mg/kg i.p.): significant increase | sucrose preference, dose response (C57B6J mice [5]; 0.3, 1 and 3 mg/kg i.p., 30 minutes pre-test, all time points (4, 8, 12, 24 hour)): dose dependent increase | IC50 [6]: 0.462 µM | IC50 [2]: 27.6 µM | time sniffing female estrous urine (C57B6J mice [7]; 1 mg/kg i.p., mesembrenol p<0.01): significant increase | time sniffing female estrous urine (C57B6J mice [7]; [9]): significant increase | time sniffing female estrous urine, dose response (C57B6J mice [7]; 0.3, 1 and 3 mg/kg i.p., relative to stress vehicle): dose dependent increase | effect in zebrafish model of anxiety (zebrafish): anxiolytic-like effect | AUC(0-inf) (in vivo): 352 ng·h/mL | Cmax (in vivo): 503 ng/mL | Tmax (in vivo): 16 min | half-life (in vivo): 26.3 min

COc1ccc(C2CNC(=O)C2)cc1OC1CCCC1 (centres unmarked) [Rolipram, reference compound]
IC50 [6]: 0.0232 µM

COc1ccc([C@@]23C=CC(=O)C[C@@H]2N(C)CC3)cc1OC [mesembrenone]
effect in zebrafish model of anxiety (zebrafish): anxiolytic-like effect

COc1ccc([C@@]23CCC(=O)C[C@@H]2N(C)CC3)cc1OC [mesembrine]
effect in zebrafish model of anxiety (zebrafish): anxiolytic-like effect
